Results from PMC12041881, “Tailored phenyl ureas eradicate drug-resistant Mycobacterium tuberculosis by targeting mycolic acid cell wall assembly” (Chemical Science, 2025).
≈ marks a conversion by molar mass, not a printed value. Entries after “also recorded” stand apart in the source; their conditions may differ. Like-named read-outs stand apart in the source and are kept apart here.

Assays:
M. tuberculosis H37Ra = test: microbe, parasite or virus in culture; format: cell-based, Mycobacterium tuberculosis; settings: for MIC: Mycobacterium tuberculosis, H37RA, read-out: MIC MTB H37Ra
WT M. tuberculosis H37Rv = test: microbe, parasite or virus in culture; format: cell-based
[1] = system: three bacterial strains from the mouse microbiota (Oligo-Mouse-Microbiota); test: MIC measurements in strains from the Oligo-Mouse-Microbiota; format: cell-based
[2] = system: probe-bound proteins in M. tuberculosis H37Ra cells; format: binding; settings: for competition of 227-p1 labelling of EphF and EphD: 5 μM 227-p1, competitor in excess (25 μM 227)
MmpL3 = MmpL3 (Mycobacterium tuberculosis, UniProt P9WJV5); format: cell-based, M. tuberculosis
physchem = settings: aqueous buffer, kinetic from dmso stock
MTB [3] = test: Checkerboard assay with ethionamide; format: cell-based, M. tuberculosis; settings: combination with ethionamide
Mtb H37Ra proteome = format: cell-based
[4] = system: M. tuberculosis H37Ra cells; format: cell-based
epoxide hydrolase EphF = format: biochemical, M. tuberculosis
HeLa cells = test: cells; format: cell-based; settings: Homo sapiens
in vivo [5] = test: in vivo; set-up: species or system CD-1 female mice; settings: female, CD-1, mouse; for bioavailability: F
Protocol: (DMA), and 95% (20% Solutol HS15 in water).
Blood timepoints were taken
liquid chromatography coupled to tandem mass spectrometry. Pharmacokinetic parameters were
LC-MS/MS analytical methods for PK studies
to create standard curves solutions.
10µLs of control, standard, or
internal standards Labetalol (Sigma Aldrich). Extracts were vortexed for 5 minutes and centrifuged at
with 75 µLs of Milli-Q deionized water.
Multiple-reaction monitoring of […]
Extracts were vortexed for 5 minutes
75 µL of extract was combined
HPLC-MS was performed as previously specified.

[6] = i.v. 5 mg kg^−1
in vivo [7] = settings: female, CD-1, mouse
in vitro = settings: mouse, microsomes
M. smegmatis DSM43756 = test: MIC / in-house urea library screen against M. smegmatis; format: cell-based; settings: read-out: MIC M. smegmatis (Msm)
[8] = system: MmpL3 underexpressing (−ATc) Mtb H37Rv; format: cell-based, M. tuberculosis
Mtb [9] = settings: strain not stated; cited from earlier work
LepB = test: FRET assay with membrane-bound LepB; settings: M. smegmatis membranes
[10] = Mycobacterium tuberculosis, H37RV
[11] = HeLa, read-out: MTT assay IC50 95% confidence interval (CI)
[12] = Mycolicibacterium smegmatis, DSM43756

MmpL3, sequence (P9WJV5 whole entry): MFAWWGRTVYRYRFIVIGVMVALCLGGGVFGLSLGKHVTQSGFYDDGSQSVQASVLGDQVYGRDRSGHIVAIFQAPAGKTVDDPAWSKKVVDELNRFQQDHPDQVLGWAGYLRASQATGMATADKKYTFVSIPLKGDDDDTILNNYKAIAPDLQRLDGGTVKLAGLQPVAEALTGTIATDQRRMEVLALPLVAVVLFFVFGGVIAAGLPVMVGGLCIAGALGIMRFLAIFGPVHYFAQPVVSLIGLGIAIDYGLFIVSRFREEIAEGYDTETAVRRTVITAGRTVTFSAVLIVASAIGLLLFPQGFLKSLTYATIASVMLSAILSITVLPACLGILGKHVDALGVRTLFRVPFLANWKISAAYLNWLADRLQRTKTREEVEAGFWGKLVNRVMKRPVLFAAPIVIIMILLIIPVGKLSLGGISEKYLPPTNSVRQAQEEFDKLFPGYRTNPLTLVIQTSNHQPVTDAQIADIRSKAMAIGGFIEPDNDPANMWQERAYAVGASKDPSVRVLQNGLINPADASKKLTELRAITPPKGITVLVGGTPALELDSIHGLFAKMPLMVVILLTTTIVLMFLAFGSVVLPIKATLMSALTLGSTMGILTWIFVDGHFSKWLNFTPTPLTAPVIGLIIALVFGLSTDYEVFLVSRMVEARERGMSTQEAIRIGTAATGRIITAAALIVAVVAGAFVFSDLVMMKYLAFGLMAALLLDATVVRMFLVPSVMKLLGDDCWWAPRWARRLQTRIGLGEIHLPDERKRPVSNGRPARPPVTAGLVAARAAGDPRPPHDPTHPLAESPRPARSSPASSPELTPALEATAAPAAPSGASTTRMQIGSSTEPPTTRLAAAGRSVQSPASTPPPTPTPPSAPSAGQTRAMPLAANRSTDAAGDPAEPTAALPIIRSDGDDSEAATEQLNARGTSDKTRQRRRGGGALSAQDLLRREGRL

O=C(Nc1ccc(Cl)c(OC(F)(F)F)c1)NC1CCCCC1 [Compound 1]
MIC (M. tuberculosis H37Ra): 3.13 µM (≈ 1.05 µg/mL)

O=C(Nc1cc(C(F)(F)F)c(Cl)cn1)NC1CCCCC1 [Compound 2]
MIC (M. tuberculosis H37Ra): > 50 µM

CC1(NC(=O)Nc2ccc(Cl)c(C(F)(F)F)c2)CCCC1 [Compound 3]
MIC MTB H37Ra (M. tuberculosis H37Ra): 0.39 µM (≈ 0.125 µg/mL) | MIC (M. tuberculosis H37Ra): 0.4 µM (≈ 0.128 µg/mL)

CC1(NC(=O)Nc2ccc(F)c(C(F)(F)F)c2)CCCC1 [Compound 4]
MIC (M. tuberculosis H37Ra): 3.13 µM (≈ 0.952 µg/mL)

CC1(NC(=O)Nc2ccccc2)CCCC1 [Compound 5]
MIC (M. tuberculosis H37Ra): 25 µM (≈ 5.46 µg/mL)

CC1(NC(=O)Nc2ccc(F)c(F)c2F)CCCC1 [Compound 6]
MIC (M. tuberculosis H37Ra): > 50 µM

CC1(NC(=O)Nc2ccc(F)c(F)c2)CCCC1 [Compound 7]
MIC (M. tuberculosis H37Ra): 25 µM (≈ 6.36 µg/mL)

CC1(NC(=O)Nc2cc(F)c(F)c(F)c2)CCCC1 [Compound 8]
MIC (M. tuberculosis H37Ra): 25 µM (≈ 6.81 µg/mL)

O=C(Nc1ccc(Cl)c(C(F)(F)F)c1)NC1CCCC1 [Compound 9]
MIC MTB H37Ra (M. tuberculosis H37Ra): 3.13 µM (≈ 0.96 µg/mL) | MIC (M. tuberculosis H37Ra): 3.2 µM (≈ 0.981 µg/mL)

O=C(Nc1ccc(Cl)c(C(F)(F)F)c1)NC1CCC1 [Compound 10]
MIC (M. tuberculosis H37Ra): 25 µM (≈ 7.32 µg/mL)

O=C(Nc1ccc(Cl)c(C(F)(F)F)c1)NC1CC1 [Compound 11]
MIC (M. tuberculosis H37Ra): > 50 µM

CC1(NC(=O)Nc2ccc(Cl)c(C(F)(F)F)c2)CCCCC1 [Compound 12]
MIC MTB H37Ra (M. tuberculosis H37Ra): 0.10 µM (≈ 0.0335 µg/mL) | MIC (M. tuberculosis H37Ra): 0.1 µM (≈ 0.0335 µg/mL) | IC50 (WT M. tuberculosis H37Rv; [10]): 0.11 µM | MIC90 (WT M. tuberculosis H37Rv; [10]): 0.2 µM (≈ 0.067 µg/mL) | effect on bacteria from the Oligo-Mouse-Microbiota [1]: not affected | competition of 227-p1 labelling of EphF and EphD [2]: weaker competition | TDM/TMM ratio compared with 227 (MmpL3): even lower TDM/TMM ratios | solubility kinetic at 5 min (physchem): 12 µM (≈ 4.02 µg/mL)

CC1CCCCC1NC(=O)Nc1ccc(Cl)c(C(F)(F)F)c1 (centres unmarked) [Compound 13]
MIC (M. tuberculosis H37Ra): 0.39 µM (≈ 0.131 µg/mL)

CC1CCCC(NC(=O)Nc2ccc(Cl)c(C(F)(F)F)c2)C1 (centres unmarked) [Compound 14]
MIC (M. tuberculosis H37Ra): 0.39 µM (≈ 0.131 µg/mL)

CC1CCC(NC(=O)Nc2ccc(Cl)c(C(F)(F)F)c2)CC1 (centres unmarked) [Compound 15]
MIC (M. tuberculosis H37Ra): 0.39 µM (≈ 0.131 µg/mL)

O=C(Nc1ccc(Cl)c(C(F)(F)F)c1)NC1(CO)CCCCC1 [Compound 16]
MIC (M. tuberculosis H37Ra): 3.13 µM (≈ 1.1 µg/mL)

O=C(Nc1ccc(Cl)c(C(F)(F)F)c1)NC12CC3CC(CC(O)(C3)C1)C2 [Compound 18]
MIC (M. tuberculosis H37Ra): 6.25 µM (≈ 2.43 µg/mL)

O=C(Nc1ccc(Cl)c(C(F)(F)F)c1)NC12CC(C1)C2 [Compound 19]
MIC (M. tuberculosis H37Ra): 12.5 µM (≈ 3.81 µg/mL)

CC1(C)OCC(NC(=O)Nc2ccc(Cl)c(C(F)(F)F)c2)CO1 [Compound 20]
MIC (M. tuberculosis H37Ra): 3.13 µM (≈ 1.1 µg/mL)

O=C(Nc1ccc(Cl)c(C(F)(F)F)c1)NC1COC2(CCC2)OC1 [Compound 21]
MIC MTB H37Ra (M. tuberculosis H37Ra): 0.78 µM (≈ 0.285 µg/mL) | MIC (M. tuberculosis H37Ra): 0.8 µM (≈ 0.292 µg/mL) | IC50 (WT M. tuberculosis H37Rv; [10]): 0.85 µM | MIC90 (WT M. tuberculosis H37Rv; [10]): 1.8 µM (≈ 0.657 µg/mL) | effect on bacteria from the Oligo-Mouse-Microbiota [1]: not affected; also recorded: does not kill | fractional inhibitory concentration (FIC) index (MTB [3]): 0.83 | competition of 227-p1 labelling of EphF and EphD [2]: weaker competition | MmpL3 abundance, Student's T-test Difference DMJB-04 0.5 µM vs DMSO (Mtb H37Ra proteome; full proteome, Mtb H37Ra, 0.5 µM): 0.4086 | membrane disruption (propidium iodide entry) [4]: Neither 227 nor 21 disrupt the membrane | TDM/TMM ratio compared with 227 (MmpL3): even lower TDM/TMM ratios | EphF inhibition (epoxide hydrolase EphF): inhibits EphF, albeit to a lesser extent | IC50 (HeLa cells; [11]): 52 to 97 µM | IC50 (HeLa cells; HeLa cells, 24 h, read-out: IC50 MTT assay): 71 µM | estimated time above MIC (in vivo [5]): approximately 16 hours | F (in vivo [5]; po, 200 mg/kg): 24.3% | AUC (in vivo [5]; po, 200 mg/kg): 45.7 µM·h | bioavailability (in vivo [5]; po, 200 mg/kg): 25.3% | AUC (in vivo [5]; po, 400 mg/kg): 73.3 µM·h | bioavailability (in vivo [5]; po, 400 mg/kg): 20.4% | CD [6]: 3.38 L/kg | Clearance [6]: 50.82 mL/(kg*min] | AUC (in vivo [7]; iv, 5 mg/kg): 4.58 µM·h | Cmax (in vivo [7]; iv, 5 mg/kg): 6.27 µM | half-life (in vivo [7]; iv, 5 mg/kg): 46.2 min | AUC (in vivo [7]; po, 25 mg/kg): 9.54 µM·h | Cmax (in vivo [7]; po, 25 mg/kg): 4.04 µM | bioavailability (in vivo [7]; po, 25 mg/kg): 42.5% | solubility kinetic at 5 min (physchem): > 200 µM | half-life at 5 µM (in vitro): 8 min | microsomal CLint at 5 µM (in vitro): 88 µL/min/mg

O=C(Nc1ccc(Cl)c(C(F)(F)F)c1)NC1CCC2(CC1)OCCO2 [Compound 22]
MIC (M. tuberculosis H37Ra): 1.56 to 3.13 µM (≈ 0.591 to 1.19 µg/mL) | solubility kinetic at 5 min (physchem): 112 µM (≈ 42.4 µg/mL)

CC1(NC(=O)Nc2ccc(Cl)c(C(F)(F)F)c2)COC2(CCC2)OC1 [Compound 23]
MIC MTB H37Ra (M. tuberculosis H37Ra): 6.25 to 12.5 µM | MIC (M. tuberculosis H37Ra): 6.25 µM (≈ 2.37 µg/mL) | solubility kinetic at 5 min (physchem): 58 µM (≈ 22 µg/mL)

C#CCCC1(CCOC(=O)c2ccc(NC(=O)Nc3ccccc3)cc2)N=N1 [Compound 150-pi]
MIC MTB H37Ra (M. tuberculosis H37Ra): inactive

C#CC1(NC(=O)Nc2ccc(N=[N+]=[N-])cc2)CCCCC1 [Compound 227-p1]
MIC (M. tuberculosis H37Ra): 25 µM (≈ 7.08 µg/mL) | MIC (M. smegmatis DSM43756; [12]): 6.25 µM (≈ 1.77 µg/mL) | EphD and EphF enrichment by probe ([2]; 5 μM 227-p1, Mtb): significantly enriched

C#CCCC1(CCOC(=O)c2ccc(NC(=O)NC3CCCCC3)cc2)N=N1 [Compound 227-p2]
MIC (M. tuberculosis H37Ra): > 50 µM | MIC (M. smegmatis DSM43756; [12]): > 50 µM

C#CCCC1(CCOC(=O)C2CCC(NC(=O)Nc3ccc(Cl)c(C(F)(F)F)c3)CC2)N=N1 (centres unmarked) [Compound 227-p3]
MIC (M. tuberculosis H37Ra): > 50 µM | MIC (M. smegmatis DSM43756; [12]): > 50 µM

O=C(Nc1ccc(Cl)c(C(F)(F)F)c1)NC1CCCCC1 [Compound 227]
MIC (M. tuberculosis H37Ra): 1.56 to 3.13 µM (≈ 0.5 to 1 µg/mL) | MIC (WT M. tuberculosis H37Rv): 1.8 µM (≈ 0.577 µg/mL) | IC50 (WT M. tuberculosis H37Rv; [10]): 1.3 µM | MIC (WT M. tuberculosis H37Rv; [10]): 1.8 µM (≈ 0.577 µg/mL) | MIC90 (WT M. tuberculosis H37Rv; [10]): 2.5 µM (≈ 0.802 µg/mL) | competition of 227-p1 labelling of EphF and EphD [2]: strongly out-competed; also recorded: out-competed | membrane disruption (propidium iodide entry) [4]: Neither 227 nor 21 disrupt the membrane | EphF inhibition (epoxide hydrolase EphF): strong inhibition | IC50 (HeLa cells; [11]): 15 to 37 µM | Clearance [6]: fast clearance | bioavailability (in vivo [7]; po, 25 mg/kg): 8.6% | solubility kinetic at 5 min (physchem): 55 µM (≈ 17.6 µg/mL)

O=C(Nc1cc(C(F)(F)F)cc(C(F)(F)F)c1)Nc1ccc(Cl)c(OC(F)(F)F)c1 [Compound 275]
MIC (M. smegmatis DSM43756; [12]): 0.8 µM (≈ 0.373 µg/mL)

CC[C@@H](CO)NCCN[C@@H](CC)CO [Ethambutol]
susceptibility shift in MmpL3 under-expressing strain [8]: no significant shifts

O=C(Nc1ccc2c(c1)OC(F)(F)O2)Nc1ccc(Cl)c(C(F)(F)F)c1 [PK150]
MIC (M. smegmatis DSM43756): 3.1 µM (≈ 1.22 µg/mL) | MIC against Mtb (Mtb [9]): 6.25 µM (≈ 2.47 µg/mL) | modulation of LepB activity (LepB): not a target; also recorded: did not show any inhibition

CC(C)=CCC/C(C)=C/CNCCNC1C2CC3CC(C2)CC1C3 (centres unmarked) [SQ109, reference compound]
dysregulated in FP? (Mtb H37Ra proteome; full proteome (FP), protein Rv3587c (O53572), probable conserved membrane protein): slightly upregulated with SQ109 treatment
